Measured values from patent publication US9211244B2, “Method for anti-skin aging using caffeamide derivative” (CHINA MEDICAL UNIVERSITY, priority 2013, dated 2015).

Tests used:
[1] = Scavenging test of DPPH free radical; assay type: biochemical; conditions: for Scavenging efficiency (%): 200 μM DPPH, 30 minutes
Procedure: DPPH (1,1-diphenyl-2-picrylhydrazyl) was used as a source of free radicals to examine the scavenging efficiency of the caffeamide derivatives prepared in Example 1 on free radicals. […] The mixtures were placed in the dark at room temperature for 30 minutes and its absorbance at 517 nm was measured by an enzyme immunoassay analyzer. In this experiment, 50 volume % propanediol was used to replace extracts and to be a control group, ascorbic acid (vitamin C) was used as a positive control group, and methanol was used to replace DPPH as the background value. The scavenging efficiency of caffeamide derivatives on free radicals was examined by the formula blow, and the results are shown in Table 2, FIG. 1a, and FIG. 1b. Scavenging efficiency(%)=[the absorbance of the control group−the absorbance of the experimental group/the absorbance of the control group]×100%.

[2] = tested on: human fibroblast Hs68 cells; assay: Cellular toxicity evaluation, MTT assay; assay type: cell-based; conditions: 24 hours
Procedure: MTT (3-(4,5-dimethylthiazol-2-yl)-2,5-diphenyl tetrazolium bromide) assay was used to determine the cellular toxicity of the caffeamide derivatives described herein. First, different concentrations (0 μM to 100 μM) of the compounds of formula (1) or formula (2) prepared in Example 1 of the present invention were added, respectively, into a 96-well microplate which containing human fibroblast Hs68 cells (1×10^4 cells per well). After the cells were incubated in an incubator at 37° C. and 5% CO2 for 24 hours, 15 μl of MTT solution (0.5 mg/ml; dissolved in PBS) was added into the microplate and the human fibroblast Hs68 cells were incubated for 3 hours. Next, 75 μl SDS (sodium dodecyl sulfate) solution (10% SDS was dissolved in 0.01N HCl) was added into the microplate. After the cells were maintained for 24 hours, the absorbances of each well were measured at a wavelength of 570 nm by an enzyme immunoassay analyzer. Finally, the cell survival rate was calculated by the following formula to observe the cellular toxicity of compounds. The results are shown in Table 5, FIG. 10a and FIG. 10b. Cell survival rate(%)=absorbance of the experimental group/absorbance of the control group.

MMP-9 = assay type: cell-based, human; conditions: 10 μM; UVB 40 mJ/cm^2; 48 hours
Procedure: After incubating for 1 hour, the cells were irradiated by UV light (UVB with an intensity of 40 mJ/cm^2) for 15 seconds. […] After incubation in an incubator (37° C., 5% CO2) for 48 hours, the cells were collected.
The collected cells were treated with a sonication buffer (containing Na3VO4 (100 μM), phenylmethanesulfonyl fluoride (PMSFL, 100 mg/ml), leupeptin (20 mg/ml), Tris-HCl (pH 7.4, 50 μM), NaCl (37.5 μM), DL-dithiothretiol (250 μM), sodium deoxycholate (3 μM), EDTA (1 μM), SDS (0.1%), and Igepal™ CA-630 (Sigma-Aldrich, 1%)) and sonicated to rupture the cell membranes. Then, the organelles and fragments of the cells were precipitated by centrifugation, and the supernatant, which contains proteins in the cytosol was collected. Next, the obtained proteins were separated by SDS-PAGE, and transferred to a membrane by western blotting. Antibodies were used to recognize the targeted proteins, such as MMP-1, MMP-3, MMP-9, and actin. The images were recorded by a Luminescent imagination technology (LAS-4000, FUJIFILM), and the variation of the proteins expression levels were determined by a quantitative analysis software (multi Gauge 2.2, Steware Technology Inc.).

tyrosinase = target: T1, tyrosinase (Mus musculus, UniProt P11344); assay: Activity analysis of tyrosinase in B16 cells; assay type: cell-based; conditions: 5 μM to 125 μM, 48 hours
T1 construct: endogenous in cells; host or cells: B16 cells
T1 sequence (P11344 19-533): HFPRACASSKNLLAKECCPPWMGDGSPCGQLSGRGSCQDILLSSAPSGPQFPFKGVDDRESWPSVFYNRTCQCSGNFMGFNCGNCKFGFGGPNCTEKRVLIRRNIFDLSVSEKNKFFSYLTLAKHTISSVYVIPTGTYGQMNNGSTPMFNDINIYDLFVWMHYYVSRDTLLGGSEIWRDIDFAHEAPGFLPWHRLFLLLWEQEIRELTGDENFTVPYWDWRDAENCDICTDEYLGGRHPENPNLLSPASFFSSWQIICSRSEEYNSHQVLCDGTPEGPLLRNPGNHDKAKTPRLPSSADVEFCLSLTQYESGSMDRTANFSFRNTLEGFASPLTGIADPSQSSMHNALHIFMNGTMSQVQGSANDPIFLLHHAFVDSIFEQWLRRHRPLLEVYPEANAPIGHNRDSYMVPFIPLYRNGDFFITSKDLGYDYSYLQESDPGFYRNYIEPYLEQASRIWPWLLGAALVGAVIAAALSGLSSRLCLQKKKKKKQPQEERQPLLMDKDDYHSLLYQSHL
Procedure: It has been known that tyrosinase is one of the primary protein participating in melanogenesis. In this experiment, different concentrations (5 μM to 125 μM) of the compounds of formula […] or (2) prepared in Example 1 were used to treat B16 cells (1.5×10^4) for 48 hours, and the activity of tyrosinase was analyzed by western blotting.

c-Fos = assay: Inhibition test of AP-1 gene transcription factors, western blot; assay type: cell-based, human; conditions: 10 μM; UVB 40 mJ/cm^2
Description: When cells are irradiated by UV rays, JNK, p38 and c-Jun in the cells will translocated into the nucleus, and c-For will translocate into the nucleus under the regulation of ERK and p38. The two subunits of c-Jun and c-Fos will combine to form an AP-1 gene transcription factor to participate in gene expression process and increase the mRNA transcription level of MMP-1. On the other hand, the two subunits can also reduce the gene expression level of procollagen al of Type I collagen. Therefore, in this experiment, the expression of AP-1 in the nucleus was analyzed by western blotting.
However, after the cells were treated with the compound of formula (2) prepared in Example 1, the protein expression levels of c-Fos, p-c-Jun, and c-Jun induced by UVB were inhibited in a concentration dependent way. Specifically, when the concentration of the compound of formula (2) was 10 μM, the expression level of c-Fos was 1.1 as compared to that of the untreated cells.

O=C(C=Cc1ccc(O)c(O)c1)NCCc1ccc(Br)cc1 [Compound of formula (2)]
Scavenging efficiency (%) ([1]; 1 μM): 6.4 ± 4.9% | Scavenging efficiency (%) ([1]; 5 μM): 12.9 ± 3.5% | Scavenging efficiency (%) ([1]; 10 μM): 26.5 ± 0.9% | Scavenging efficiency (%) ([1]; 25 μM): 62.1 ± 2.9% | Scavenging efficiency (%) ([1]; 50 μM): 96.6 ± 0.4% | EC50 ([1]; DPPH free radical scavenging, read-out: SC50 (the source's name)): 20 ± 1 µM | Cell survival rate (%) ([2]; 5 μM): 92.0 ± 1.0% | Cell survival rate (%) ([2]; 10 μM): 90.4 ± 2.3% | Cell survival rate (%) ([2]; 25 μM): 89.7 ± 2.8% | Cell survival rate (%) ([2]; 50 μM): 86.1 ± 1.4% | expression level of MMP-9 as compared to that of the untreated cells (MMP-9): 0.7 times | activity of the tyrosinase in the cells (tyrosinase): inhibited | expression level of c-Fos as compared to that of the untreated cells (c-Fos): 1.1
